{
  "source": "ChEMBL document CHEMBL3232796",
  "about": "“Synthesis and carbonic anhydrase I, II, IX and XII inhibition studies of 4-N,N-disubstituted sulfanilamides incorporating 4,4,4-trifluoro-3-oxo-but-1-enyl, phenacylthiourea and imidazol-2(3H)-one/thione moieties” (Bioorg Med Chem Lett, 2014)",
  "data": [
    {"molecular_target": "Carbonic anhydrase 9 (Homo sapiens, UniProt Q16790)", "units": {"Ki": "nM"}, "description": "Inhibition of human recombinant transmembrane tumor associated carbonic anhydrase-9 incubated for 15 mins prior to testing by stopped-flow CO2 hydrase assay", "values": [
      {"smiles": "NS(=O)(=O)c1ccc(-n2cc(-c3ccc(F)cc3)[nH]c2=S)cc1", "Ki": 37},
      {"smiles": "NS(=O)(=O)c1ccc(N(/C=C/C(=O)C(F)(F)F)CC(=O)c2ccc(F)cc2)cc1", "Ki": 13},
      {"smiles": "NS(=O)(=O)c1ccc(N(/C=C/C(=O)C(F)(F)F)CC(=O)c2ccccc2)cc1", "Ki": 9.5},
      {"smiles": "NS(=O)(=O)c1ccc(-n2cc(-c3ccccc3)[nH]c2=O)cc1", "Ki": 34},
      {"smiles": "NS(=O)(=O)c1ccc(N(/C=C/C(=O)C(F)(F)F)Cc2ccccc2)cc1", "Ki": 39},
      {"smiles": "NS(=O)(=O)c1ccc(N(/C=C/C(=O)C(F)(F)F)CC(=O)c2ccc(Cl)cc2)cc1", "Ki": 17},
      {"smiles": "NS(=O)(=O)c1ccc(N(/C=C/C(=O)C(F)(F)F)Cc2ccc(Cl)cc2)cc1", "Ki": 33},
      {"smiles": "NS(=O)(=O)c1ccc(-n2cc(-c3ccccc3)[nH]c2=S)cc1", "Ki": 13},
      {"smiles": "CCOC(=O)NC(=S)N(CC(=O)c1ccc(Cl)cc1)c1ccc(S(N)(=O)=O)cc1", "Ki": 25},
      {"smiles": "Cc1ccc(C(=O)CN(/C=C/C(=O)C(F)(F)F)c2ccc(S(N)(=O)=O)cc2)cc1", "Ki": 18},
      {"smiles": "NS(=O)(=O)c1ccc(-n2cc(-c3ccc(F)cc3)[nH]c2=O)cc1", "Ki": 25}
    ]}
  ]
}
